By Emax is commonly meant the size of the effect at its maximum, as opposed to the concentration needed. What is called melting point is the temperature of the solid-liquid transition.

This is an account of results in patent US20010053774A1, “Non-steroidal ligands for the estrogen receptor” (GLAXO WELLCOME INC.., priority 1994, published 2001).

Like-named read-outs stand apart in the source and are kept apart here.

In data set [1] the test system is Ishikawa human endometrioma cell line. The data set is described as follows: Ishikawa cell functional assay of estrogenic activity (alkaline phosphatase induction). Format: cell-based. As to conditions: for EC50: Ishikawa-Var I cells, 2 days incubation, estrogen agonist activity, read-out: EC50 (concentration inducing 50% of maximal alkaline phosphatase activity); for agonist activity (Emax) in the Ishikawa cell functional assay (in words): comparison with tamoxifen or within the series; for Emax (maximal alkaline phosphatase activity) / Emax: percentage of the alkaline phosphatase activity induced by a saturating concentration of estradiol; for Emax: Ishikawa, read-out: Emax (maximal alkaline phosphatase activity). The method, then: Subconfluent Ishikawa-Var I cells were removed from maintenance growth conditions and resuspended in phenol red-free DMEM-F12 containing 5% charcoal stripped FBS and 2 mM glutamine at a concentration of 58,500 cells/mL. Cells were plated at a density of 13,000 cells/cm^2 and placed in an incubator (37° C., 5% CO2) for 3 days. Cells were harvested and resuspended in phenol red-free DMEM-F12 containing 1% charcoal stripped FBS, 2 mM glutamine, 100 Units/mL penicillin and 100 μg/mL streptomycin to a concentration of 83,000 cells/mL. Cells were seeded at a density of 8300 cells/well in 96 well plates and allowed to attach overnight. Appropriate drug treatments at 2× concentrations were added in 0.1 mL of medium containing 0.2% DMSO. Plates were incubated for 2 days, media was aspirated and plates washed once with 300 μL 0.9% sterile saline. Plates were frozen at −70° C. and then warmed to RT. The attached cells were assayed for alkaline phosphatase activity by addition of 200 μL of 5 mM p-nitrophenylphosphate in 1 M diethanolamine, pH 10.4, containing 0.1% (w/v) Triton X-100, incubation at 37° C. for 30 min and measurement of absorbance at 405 nm on a Molecular Devices ThermoMax plate reader.

Data set [2] concerns 21 day old female SD rats. The data set can be described thus: in-vivo anti-uterotrophic activity in immature rats (uterine weight/body weight). Details: species or system rat. The conditions noted are these: 10 μmol/kg by gavage for 3 days, compared with tamoxifen. The method, then:
In order to evaluate the compounds set forth above for in-vivo anti-uterotrophic activity, groups of five 21 day old female SD rats (30-35 g) were weighed and the average weights recorded for each treatment group as illustrated in FIG. 1. Stock solutions (10×) of the triphenylethylene analogs in ethanol were diluted with 0.5% methyl cellulose and 10 μmol/kg was dosed by gavage to the animals. Estradiol was dissolved in sesame oil and 100 nmol/kg dosed by subcutaneous injection. Animals were dosed for 3 days and sacrificed on day 4 by CO2 asphyxiation. The body weights were obtained, uteri removed, blotted and weighed. Data is expressed as uterine weight/body weight±standard error. Solid bars represent data from animals dosed with test compound alone. Open bars represent data from animals dosed with test compounds 6h prior to a dose of estradiol.

The target of data set [3] is rat estrogen receptor (Rattus norvegicus, UniProt P06211). As to conditions: for receptor affinity in the receptor binding assay (in words): comparison within the amide analog series. The source says:
Those skilled in the art will appreciate that several acceptable varieties of rat estrogen receptor binding assays are known and available for initial screening of the compounds of the present invention with respect to their ability to bind to the appropriate receptor. Compounds were initially evaluated as set forth below in an rat estrogen receptor binding assay for the ability to inhibit the binding of [^3H]-estradiol.

Chain of rat estrogen receptor (P06211 whole entry): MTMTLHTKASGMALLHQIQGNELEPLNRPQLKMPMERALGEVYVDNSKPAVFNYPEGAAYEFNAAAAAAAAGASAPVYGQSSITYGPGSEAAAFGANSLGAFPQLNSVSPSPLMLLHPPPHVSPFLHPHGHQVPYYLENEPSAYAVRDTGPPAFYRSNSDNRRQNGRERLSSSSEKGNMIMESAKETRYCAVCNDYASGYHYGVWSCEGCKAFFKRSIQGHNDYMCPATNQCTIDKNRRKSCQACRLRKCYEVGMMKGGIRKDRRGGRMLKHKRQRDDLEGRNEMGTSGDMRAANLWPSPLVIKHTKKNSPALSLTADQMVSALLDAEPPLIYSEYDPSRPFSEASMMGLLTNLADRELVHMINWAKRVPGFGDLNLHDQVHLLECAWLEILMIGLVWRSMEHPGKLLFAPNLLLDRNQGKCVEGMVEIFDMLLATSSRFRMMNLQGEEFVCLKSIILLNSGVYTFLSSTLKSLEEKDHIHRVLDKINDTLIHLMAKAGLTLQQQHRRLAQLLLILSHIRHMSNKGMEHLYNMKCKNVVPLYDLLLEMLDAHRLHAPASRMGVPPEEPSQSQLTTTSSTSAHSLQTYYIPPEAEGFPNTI

As to `CCCCCCCCN(C)C(=O)C=Cc1ccc(C(=C(CC)c2ccccc2)c2ccccc2)cc1` [compound 14, 3-[4-(1,2-Diphenyl-but-1-enyl)-phenyl]-N-methyl-N-octyl acrylamide], in data set [1], the EC50 was found to be 12 nM, the “agonist activity (Emax) in the Ishikawa cell functional assay (in words)” value (shortened to “agonist activity (Emax)”) is “lowest residual agonist activity” and the “Emax (maximal alkaline phosphatase activity)” value is recorded as 6.3 ± 1.2%.
Take `CC/C(=C(\c1ccccc1)c1ccc(OCCN(C)C)cc1)c1ccccc1` [Tamoxifen, (Z)-1,2-diphenyl-1-[4-[2-(dimethylamino)ethoxy]phenyl]-1-butene, reference compound]: the EC50 in data set [1] (Homo sapiens, 48 h) is 33 nM. Also, in data set [1] (Homo sapiens), the Emax was 16.5 ± 0.6%.
With `CCC(=C(c1ccccc1)c1ccc(C=CC(=O)N(CC)CCN(C)C)cc1)c1ccccc1` [compound 13, N-(2-Dimethylamino-ethyl)-3-[4-(1,2-diphenyl-but-1-enyl)-phenyl]-N-ethyl acrylamide], in data set [1], the EC50 was determined as 4.6 nM and the “Emax (maximal alkaline phosphatase activity)” value is on record as 16.5 ± 1.7%.
For the molecule `C[C@]12CC[C@@H]3c4ccc(O)cc4CC[C@H]3[C@@H]1CC[C@@H]2O` [Estradiol, estradiol, reference compound], the EC50 in data set [1] (Homo sapiens, 48 h) amounted to 0.01 nM. Moreover, in data set [1] (Homo sapiens), the Emax was 100%.
For the molecule `CCC(=C(c1ccccc1)c1ccc(C=CC(N)=O)cc1)c1ccccc1` [compound 15, 3-[4-(1,2-Diphenyl-but-1-enyl)-phenyl]acrylamide], the melting point fell in the range of 200 to 202 °C. Further, the EC50 in data set [1] (Homo sapiens, 48 h) is 8.6 nM. Besides, the Emax in data set [1] (Homo sapiens) is 8.9 ± 1.4%. Moreover, the “agonist activity (Emax)” value in data set [1] is “lowest residual agonist activity”. The “residual agonist activity, uterine weight/body weight (FIG. 1)” value in data set [2] is given as “less residual agonist activity than tamoxifen”.
For `CCNC(=O)C=Cc1ccc(C(=C(CC)c2ccccc2)c2ccccc2)cc1` [compound 16, 3-[4-(1,2-Diphenyl-but-1-enyl)-phenyl]-N-ethyl acrylamide], in data set [1], the EC50 turned out to be 18 nM and the “Emax (maximal alkaline phosphatase activity)” value stood at 11.8 ± 1.9%.
Take `CCC(=C(c1ccccc1)c1ccc(C=Cc2noc(C)n2)cc1)c1ccccc1` [Compound No. 18, 3-{2-[4-(1,2-Diphenyl-but-1-enyl)-phenyl]-vinyl}-5-methyl-[1,2,4]-oxadiazole]: the melting point is 158 to 159 °C.
For `CCC(=C(c1ccccc1)c1ccc(C2CC2C(=O)N(CC)CC)cc1)c1ccccc1` (stereo not shown) [compound 3, 2-[4-(1,2-Diphenyl-but-1-enyl)-phenyl]cyclopropanecarboxylic acid diethylamide], the melting point is 42 to 44 °C. Further, the EC50 in data set [1] (Homo sapiens, 48 h) came out at 4.9 nM. The Emax in data set [1] (Homo sapiens) is 15.7 ± 1.8%.
`CCC(=C(c1ccccc1)c1ccc(C=CC(=O)NCCCOC)cc1)c1ccccc1` [compound 11, 3-[4-(1,2-Diphenyl-but-1-enyl)-phenyl]-N-(3-methoxy-propyl)-acrylamide] came in with a melting point of 132 to 135 °C. Further, the EC50 in data set [1] (Homo sapiens, 48 h) was 11 nM. Also, the Emax in data set [1] (Homo sapiens) came to 14 ± 1.5%.
Molecule `CCC(=C(c1ccccc1)c1ccc(C=CC#N)cc1)c1ccccc1` [Compound No. 7, 3-[4-(1,2-Diphenyl-but-1-enyl)-phenyl]-acrylonitrile] showed a melting point of 101 to 102 °C.
Same read-out and setting: next, `CCC(=C(c1ccccc1)c1ccc(C=CC(=O)OC(C)(C)C)cc1)c1ccccc1` [Compound No. 8, 3-[4-(1,2-Diphenyl-but-1-enyl)-phenyl]-acrylic acid tert-butyl ester]: 139 to 140 °C; `CCC(=C(c1ccccc1)c1ccc(C=CC(N)=NO)cc1)c1ccccc1` [compound 17, 1-Amino-3-[4-(1,2-diphenyl-but-1-enyl)-phenyl]-prop-2-ene-1-one oxime]: 182 to 185 °C.
On to `CCC(=C(c1ccccc1)c1ccc(C=CC(=O)N(CC)CC)cc1)c1ccccc1` [Compound No. 1, 3-[4-(1,2-Diphenyl-but-1-enyl)-phenyl]-N,N-diethyl acrylamide], for which, in data set [1], the EC50 came out at 2.3 nM, the “agonist activity (Emax)” value is recorded as “significantly lower agonist activity (Emax) than tamoxifen” and the “Emax (maximal alkaline phosphatase activity)” value is recorded as 11.9 ± 1.2%. Besides, the “receptor affinity in the receptor binding assay (in words)” value in data set [3] was “highest affinity”. The “estrogen receptor binding affinity relative to tamoxifen” value in data set [3] (higher affinity than tamoxifen) is “approx. 10 fold”.
The molecule `CCC(=C(c1ccccc1)c1ccc(C=CC(=O)N2CCOCC2)cc1)c1ccccc1` [compound 10, 3-[4-(1,2-Diphenyl-but-1-enyl)-phenyl]-1-morpholin-4-yl-prop-2-en-1-one] came in with a melting point of 150 to 154 °C. For the same molecule, the EC50 in data set [1] (Homo sapiens, 48 h) is 6.9 nM. Besides, the maximal effect (Emax) in data set [1] (Homo sapiens) turned out to be 14.8 ± 2.4%.
Regarding `CCC(=C(c1ccccc1)c1ccc(C=CC(=O)NCCCO)cc1)c1ccccc1` [compound 22, 3-[4-(1,2-Diphenyl-but-1-enyl)-phenyl]-N-(3-hydroxy-propyl)-acrylamide], the melting point fell in the range of 144 to 146 °C. The EC50 in data set [1] (Homo sapiens, 48 h) turned out to be 17 nM. In addition, in data set [1] (Homo sapiens), the Emax was found to be 15.3 ± 2.4%.
Take `CCC(=C(c1ccccc1)c1ccc(C=C(C)C(=O)N(CC)CC)cc1)c1ccccc1` [Compound No. 4, 3-[4-(1,2-Diphenyl-but-1-enyl)-phenyl]-N, N-diethyl-2-methyl-acrylamide]: the EC50 in data set [1] (Homo sapiens, 48 h) is 20 nM. In addition, the Emax in data set [1] (Homo sapiens) came out at 18.8 ± 2.3%.
On to `CCC(=C(c1ccccc1)c1ccc(C=CC(=O)OC)cc1)c1ccccc1` [Compound No. 6, 3-[4-(1,2-Diphenyl-but-1-enyl)-phenyl]-acrylic acid methyl ester], for which the melting point was in the range of 133 to 135 °C.
On to `CCC(=C(c1ccccc1)c1ccc(C=CC(=O)N(C2CCCCC2)C2CCCCC2)cc1)c1ccccc1` [Compound No. 12, N,N-Dicyclohexyl-3-[4-(1,2-diphenyl-but-1-enyl)-phenyl] acrylamide], for which, in data set [1], the EC50 was 70 nM and the “Emax (maximal alkaline phosphatase activity)” value is given as 19.4 ± 2.0%. Also, in data set [3], the “receptor affinity in the receptor binding assay (in words)” value is “reduced receptor affinity”.
On to `CCC(=C(c1ccccc1)c1ccc(C=CC(=S)N(CC)CC)cc1)c1ccccc1` [compound 21, 3-[4-(1,2-Diphenyl-but-1-enyl)-phenyl]-N,N-diethyl thioacrylamide], for which, in data set [1], the EC50 worked out at 6.9 nM and the “Emax (maximal alkaline phosphatase activity)” value is 18.8 ± 2.6%.
`CCC(=C(c1ccccc1)c1ccc(C=CCO)cc1)c1ccccc1` [Compound No. 19, 3-[4-(1,2-Diphenyl-but-1-enyl)-phenyl]-prop-2-ene-1-ol] showed a melting point of 80 to 83 °C.
With `CCC(=C(c1ccccc1)c1ccc(C(C)=CC(=O)N(CC)CC)cc1)c1ccccc1` [Compound No. 5, 3-[4-(1,2-Diphenyl-but-1-enyl)-phenyl]-but-2-enoic acid diethylamide], the melting point lay within 109 to 111 °C. Also, the EC50 in data set [1] (Homo sapiens, 48 h) was found to be 7.3 nM. The Emax in data set [1] (Homo sapiens) amounted to 15 ± 3%.
